Experiments:
Format in all cases: cell-based
[1] = test system: A. quina (AcaVNAK03); test: Amoebicidal activity assay on trophozoites; settings: Acanthamoeba quina, 24 h of incubation
Description: (§1) The activity against two clinical isolates of free-living amoebae, Acanthamoeba lugdunensis (strain AcaVNAK02) and Acanthamoeba quina (strain AcaVNAK03), both belonging to the T4 genotype, was tested in vitro as previously described. The trophozoites were cultivated in 25 cm^2 tissue culture flasks under axenic conditions in peptone-yeast extract-glucose medium (PYG). The cultivation was carried out under aerobic conditions at laboratory temperature. For the experiments, a fresh 72 h culture was used. Acanthamoebae adherent to flasks represented the trophozoite form and was used in the subsequent assay. Experiments were carried out in 96-well microtiter plates under sterile conditions at 37 °C. Each well was seeded with 100 µL (2 × 10^5 cells mL^−1) of a trophozoite suspension. Then, 100 µL of a freshly prepared medium containing a tested compound at 6 different concentrations was added to all wells, except for the untreated control wells that received 100 µL of the pure medium. Each compound was tested at final concentrations of 500, 250, 125, 62.5, 31.25, and 15.6 µM. The reduction of trophozoites was recorded after 24 h by counting the surviving cells in a Bürker–Türk hemocytometer. The growth control after 24 h (amoebae in inoculum without treatment): A. lugdunensis (AcaVNAK02): 2.5 × 10^5 cells mL^−1, A. quina (AcaVNAK03): 2.1 × 10^5cells/mL comparing to initial inoculum 1 × 10^5 cells mL^−1. The viability of trophozoites was determined by trypan blue exclusion. The EC50 (effective concentration of tested compound that reduces the survival of amoebae by 50%) values were calculated by linear regression analysis using Microsoft Office Excel 2016 (Microsoft Corporation, Redmond, WA, USA) software. All experiments were performed in quadruplicate for each concentration.

[2] = test system: A. lugdunensis (AcaVNAK02); test: Amoebicidal activity assay on trophozoites; settings: Acanthamoeba lugdunensis, 24 h of incubation
Description: as §1

[3] = test system: Jurkat (human leukemic T cell lymphoma); test: MTS cell proliferation/viability assay; settings: 72 h
Description: (§2) The human cancer cell line HCT116 (human colorectal adenocarcinoma), HeLa (human cervical adenocarcinoma), Jurkat (human leukemic T cell lymphoma), and MDA-MB-231 (human mammary gland adenocarcinoma, triple-negative) were cultured in RPMI 1640 medium (Biosera, Kansas City, MO, USA). MCF-7 (human breast adenocarcinoma), A2058 (human metastatic melanoma), PANC-1 (human pancreatic adenocarcinoma), and NIH 3T3 (murine fibroblasts) cell lines were maintained in a growth medium consisting of high glucose Dulbecco’s Modified Eagle Medium with sodium pyruvate (Biosera, Kansas City, MO, USA). MCF-10A cell line (human mammary gland epithelial cells) was maintained in a growth medium consisting of high glucose DMEM F12 Medium (Biosera, Kansas City, MO, USA) + Suppl. (insulin, EGF-[…], HC-hydrocortisone, choleratoxin all Sigma, Steinheim, Germany). The growth medium was supplemented with a 10% fetal bovine serum, penicillin (100 IU/mL), and streptomycin (100 μg/mL) (all Invitrogen, Carlsbad, CA, USA), and cells were maintained in an atmosphere containing 5% CO2 in humidified air at 37 °C. Cell viability, estimated by trypan exclusion, was greater than 95% before each experiment.
(§3) The metabolic activity colorimetric assay (MTS) was used to determine the effects of CA (c = 10–300 µM) and compounds CAP 6, CAP 8, CAP 10, and CAP 12 (c = 1–100 µM) on the metabolic activity of several cell lines. After 72 h of incubation, 10 µL of MTS (Promega, Madison, WI, USA) was added to each well according to the CellTiter 96® AQueous One Solution Cell Proliferation Assay protocol. After a minimum of 1 h incubation, the absorbance was measured at 490 nm using the automated Cytation^TM 3 Cell Imaging Multi-Mode Reader (Biotek, Winooski, VT, USA). The absorbance of the control wells was taken as 1.0 (100%), and the results were expressed as a fold of the control. All experiments were performed in triplicate. Ideal predictive IC50 values were calculated from MTS analyses-based concentration concentration-dependent trends.

[4] = test system: HeLa (human cervical adenocarcinoma); test: MTS cell proliferation/viability assay; settings: 72 h
Description: as §2, §3

[5] = test system: A2058 (human metastatic melanoma); test: MTS cell proliferation/viability assay; settings: 72 h
Description: as §2, §3

[6] = test system: PANC-1 (human pancreatic adenocarcinoma); test: MTS cell proliferation/viability assay; settings: PANC-1, MTS, 72 h
Description: as §2, §3

[7] = test system: HCT116 (human colorectal adenocarcinoma); test: MTS cell proliferation/viability assay; settings: HCT-116, 72 h
Description: as §2, §3

[8] = test system: MCF-7 (human breast adenocarcinoma); test: MTS cell proliferation/viability assay; settings: MCF7, MCF-7, MTS, 72 h
Description: as §2, §3

[9] = test system: MDA-MB-231 (human mammary gland adenocarcinoma); test: MTS cell proliferation/viability assay; settings: MDA-MB-231, MTS, 72 h
Description: as §2, §3

| Compound | IC50 [3] [µM] | IC50 [4] [µM] | IC50 [5] [µM] | IC50 [6] [µM] | IC50 [7] [µM] | IC50 [8] [µM] | IC50 [9] [µM] | EC50 [1] [µM] | EC50 [2] [µM] |
| --- | --- | --- | --- | --- | --- | --- | --- | --- | --- |
| O=C(O)C=Cc1ccc(O)c(O)c1 [CA, 3-(3,4-dihydroxyphenyl)-2-propenoic acid, reference compound] | > 300 | > 300 | > 300 | > 300 | > 300 | > 300 | > 300 | 3000 ± 1510 | > 100000 |
| CC(=O)Oc1ccc(/C=C/C(=O)OCCCCCC[P+](c2ccccc2)(c2ccccc2)c2ccccc2)cc1OC(C)=O [CAP 6, P,P,P-triphenyl-6-{(2E)-3-[3,4-(diacetyloxy)penyl]prop-2-enoyloxy}hexane-1-phosphanium bromide] | 8.5 ± 0.2 | 34 ± 1.8 | 30.5 ± 1.5 | 98.8 ± 2.4 | 31 ± 0.4 | 44.5 ± 0.1 | 37 ± 0.3 | 44.1 ± 9.2 | 74.2 ± 18.4 |
| CC(=O)Oc1ccc(/C=C/C(=O)OCCCCCCCCCC[P+](c2ccccc2)(c2ccccc2)c2ccccc2)cc1OC(C)=O [CAP 10, P,P,P-triphenyl-10-{(2E)-3-[3,4-(diacetyloxy)penyl]prop-2-enoyloxy}decane-1-phosphanium bromide] |  | 8 ± 0.7 | 9 ± 0.5 | 91.2 ± 2.6 | 9.2 ± 0.3 | 9.5 ± 0.2 | 4.9 ± 0.5 | 291 ± 36.8 | 834 ± 303 |

These reach a lower IC50 [4]. Values come first.

| IC50 [3] [µM] | IC50 [4] [µM] | IC50 [5] [µM] | IC50 [6] [µM] | IC50 [7] [µM] | IC50 [8] [µM] | IC50 [9] [µM] | Compound | EC50 [1] [µM] | EC50 [2] [µM] |
| --- | --- | --- | --- | --- | --- | --- | --- | --- | --- |
| 6.9 ± 0.3 | 7.1 ± 0.3 | 9.4 ± 0.3 | > 100 | 8.3 ± 0.6 | 48.7 ± 0.1 | 4.8 ± 0.5 | CC(=O)Oc1ccc(/C=C/C(=O)OCCCCCCCC[P+](c2ccccc2)(c2ccccc2)c2ccccc2)cc1OC(C)=O [CAP 8, P,P,P-triphenyl-8-{(2E)-3-[3,4-(diacetyloxy)penyl]prop-2-enoyloxy}okctane-1-phosphanium bromide] | 94.1 ± 14.5 | 99.8 ± 23.7 |
|  | 3.3 ± 1.1 | 9 ± 0.5 | > 100 | 8.3 ± 0.6 | 4.9 ± 0.7 | 3.5 ± 0.6 | CC(=O)Oc1ccc(/C=C/C(=O)OCCCCCCCCCCCC[P+](c2ccccc2)(c2ccccc2)c2ccccc2)cc1OC(C)=O [CAP 12, P,P,P-triphenyl-12-{(2E)-3-[3,4-(diacetyloxy)penyl]prop-2-enoyloxy}dodecane-1-phosphanium bromide] | 3320 ± 2060 | 3120 ± 941 |

Source: PMC10817097, “Caffeic Acid Phosphanium Derivatives: Potential Selective Antitumor, Antimicrobial and Antiprotozoal Agents” (International Journal of Molecular Sciences, 2024)
